Reference: patent publication US20080119412A1, “Polypeptides for Modulating Binding of Trp Channel Proteins and Trp- Associated Proteins” (NoNO Inc., priority 2003, published 2008)
Residues, ends and D or L forms follow the SMILES beside them. No end group written: not given here. *: point of attachment. Biotin = O=C1N[C@H]2[C@H](CS[C@H]2CCCCC(=O)*)N1

Experiments:
[1] = target: T1, TIP1 d1 (Homo sapiens, UniProt O14907); assay: G3 assay titration, GST-PDZ fusion / biotinylated peptide; format: binding
T1 construct: made in house; host or cells: E. coli (DH5alpha, BL21 or JM109)
T1 sequence (O14907 14-116): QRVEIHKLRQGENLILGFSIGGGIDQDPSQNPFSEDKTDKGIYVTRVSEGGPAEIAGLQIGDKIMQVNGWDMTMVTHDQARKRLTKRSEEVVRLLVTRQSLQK
Protocol: The G3 assay is identical to the G0 assay with the following exceptions. The peptides are typically present at 0.1 μM rather than 20 μM. The peptides are also pre-incubated with the HRP-streptavidin prior to adding to the assay plate. In the G0 assay, free peptide is incubated with the PDZ proteins prior to the addition of the HRP-streptavidin. Thus, for the G0 assay one can lose signal if the bound peptide dissociates from the PDZ protein prior to the addition of the HRP-streptavidin. In the G3 modified assay the HRP-streptavidin/peptide complex is added to the plate in one step, thus increasing the likelihood that all the bound peptide will be bound to HRP-streptavidin. The G3 modified assay increases the chance of observing weak interactions.
This example describes assays to identify binding between TRPM7 and PDZ domains. GST-PDZ fusions are produced that each contain an entire PDZ domain (or multiple PDZ domains), the collection encompassing approximately 90% of all PDZ domains identified in the human genome. (See Table 5 and Section V (PDZ Proteins and PL Protein Interactions Disclosure). Biotinylated peptide corresponding to 11 residues of Tat coupled to the C-terminal 9 amino acids of TRPM7 ([…]; SEQ ID NO:258) is synthesized and purified by HPLC.
• Nunc MaxiSorp 96 well Immuno-plate, Nunc • PBS pH 7.4 (phosphate buffered saline, 8 g NaCl, 0.29 g KCl, 1.44 g Na2HPO4, 0.24 g KH2PO4, add H2O to 1 liter and pH 7.4; 0.2 μm filter) • Assay Buffer: 2% BSA in PBS (20 g of bovine serum albumin per liter PBS, fraction V, ICN Biomedicals, cat#IC15142983 • Goat anti-GST polyclonal Ab, stock 5 mg/ml, stored at 4° C., Amersham Pharmacia cat#27-4577-01 • Dilute 1:1000 in PBS, final concentration 5 μg/ml. • HRP-Streptavidin, 2.5 mg/2 ml stock stored at 4° C., Zymed cat#43-4323, dilute 1:2000 into Assay buffer, final concentration of […] • Wash Buffer, PBS • Biotinylated peptides (HPLC purified, stock solution stored in −20° C. freezer) • GST-PRISM proteins (stock stored at −80° C., after 1st thaw store in −10° C. freezer) • TMB (3,3′,5,5′, teramethylbensidine), tablets, Sigma cat.#T5525 • Per plate, dissolve 1 tablet in 1 ml DMSO, add 9 ml Citrate/Phosphate buffer pH 5.4 and 2 μL H2O2 • 0.1 M H2SO4, Sigma cat.#S1526 • 12-w multichannel pipettor & tips • 50 ml reagent reservoirs, Costar#4870 • 50, 15 ml polypropylene conical tubes • Costar Transtar 96 Costar #7605 • Transtar 96 Cartridge Costar #7610 • Molecular Devices microplate reader (450 & 650 nm filters) with SoftMax Pro software *When using reagents stored at or 4° C. or −20° C., remove & keep on ice
• 1. Coat plate with 100 μl of 5 μg/ml anti-GST, overnight at 4° C. • 2. Dump contents of plate & out tap dry on paper towels • 3. Block with 200 μl Assay Buffer for 2 hrs at room temperature • 4. Prepare proteins at 5 μg/ml in Assay Buffer • 5. Wash 3× with cold PBS (4° C.), avoiding letting the plates dry out • 6. Add proteins at 50 μl per well, incubate 1 to 2 hrs at 4° C. • 7. Prepare peptides to desired concentration in Assay Buffer • 8. Wash 3× with cold PBS (4° C.), avoiding letting the plates dry out • 9. Add HRP-Streptavidin/peptide complex [prepared by incubating for 20 minutes at room temperature HRP-Streptavidin (1:2000) with the desired biotin-peptide concentration for 20 minutes at room temperature] at 50 μl per well on ice • 10. Place at room temperature for exactly 30 minutes • 11. Promptly wash 5× with PBS at room temperature • 12. Add 100 μl/well TMB substrate (write time on plate) • 13. Incubate in dark at room temperature for a maximum of 30 minutes • 14. Read plate at 25 minutes (650 nm), optional • 15. Stop reaction with 100 μl of 0.18 M H2SO4, 30 minutes after adding TMB • Take last reading at 450 nm soon after stopping reaction
The G3 assay was performed on a subset of the PDZ domains as in Example II except that the concentration of peptide was 0.002 μM, […], 0.1 μM, 0.2 μM, 1 μM, and 2 μM. Data was fitted to the equation: […]

[2] = tested on: neurons; assay: Oxygen-glucose deprivation (OGD) of neurons: ROS production, calcium uptake, cell death; format: cell-based; conditions: prolonged OGD, FIG. 7
Protocol: The fraction of dead cells was determining by dividing the number of neurons expressing GFP which became stained with propidium iodide 20 h after OGD by the number of neurons expressing GFP at the beginning of the experiment. Data for each culture was obtained from counting cells in 3 high power microscope fields per experiment.

[3] = target: TRPM7 (Homo sapiens, UniProt Q96QT4); conditions: intracellular free; cited from earlier work
Sequence of TRPM7 (Q96QT4 whole entry): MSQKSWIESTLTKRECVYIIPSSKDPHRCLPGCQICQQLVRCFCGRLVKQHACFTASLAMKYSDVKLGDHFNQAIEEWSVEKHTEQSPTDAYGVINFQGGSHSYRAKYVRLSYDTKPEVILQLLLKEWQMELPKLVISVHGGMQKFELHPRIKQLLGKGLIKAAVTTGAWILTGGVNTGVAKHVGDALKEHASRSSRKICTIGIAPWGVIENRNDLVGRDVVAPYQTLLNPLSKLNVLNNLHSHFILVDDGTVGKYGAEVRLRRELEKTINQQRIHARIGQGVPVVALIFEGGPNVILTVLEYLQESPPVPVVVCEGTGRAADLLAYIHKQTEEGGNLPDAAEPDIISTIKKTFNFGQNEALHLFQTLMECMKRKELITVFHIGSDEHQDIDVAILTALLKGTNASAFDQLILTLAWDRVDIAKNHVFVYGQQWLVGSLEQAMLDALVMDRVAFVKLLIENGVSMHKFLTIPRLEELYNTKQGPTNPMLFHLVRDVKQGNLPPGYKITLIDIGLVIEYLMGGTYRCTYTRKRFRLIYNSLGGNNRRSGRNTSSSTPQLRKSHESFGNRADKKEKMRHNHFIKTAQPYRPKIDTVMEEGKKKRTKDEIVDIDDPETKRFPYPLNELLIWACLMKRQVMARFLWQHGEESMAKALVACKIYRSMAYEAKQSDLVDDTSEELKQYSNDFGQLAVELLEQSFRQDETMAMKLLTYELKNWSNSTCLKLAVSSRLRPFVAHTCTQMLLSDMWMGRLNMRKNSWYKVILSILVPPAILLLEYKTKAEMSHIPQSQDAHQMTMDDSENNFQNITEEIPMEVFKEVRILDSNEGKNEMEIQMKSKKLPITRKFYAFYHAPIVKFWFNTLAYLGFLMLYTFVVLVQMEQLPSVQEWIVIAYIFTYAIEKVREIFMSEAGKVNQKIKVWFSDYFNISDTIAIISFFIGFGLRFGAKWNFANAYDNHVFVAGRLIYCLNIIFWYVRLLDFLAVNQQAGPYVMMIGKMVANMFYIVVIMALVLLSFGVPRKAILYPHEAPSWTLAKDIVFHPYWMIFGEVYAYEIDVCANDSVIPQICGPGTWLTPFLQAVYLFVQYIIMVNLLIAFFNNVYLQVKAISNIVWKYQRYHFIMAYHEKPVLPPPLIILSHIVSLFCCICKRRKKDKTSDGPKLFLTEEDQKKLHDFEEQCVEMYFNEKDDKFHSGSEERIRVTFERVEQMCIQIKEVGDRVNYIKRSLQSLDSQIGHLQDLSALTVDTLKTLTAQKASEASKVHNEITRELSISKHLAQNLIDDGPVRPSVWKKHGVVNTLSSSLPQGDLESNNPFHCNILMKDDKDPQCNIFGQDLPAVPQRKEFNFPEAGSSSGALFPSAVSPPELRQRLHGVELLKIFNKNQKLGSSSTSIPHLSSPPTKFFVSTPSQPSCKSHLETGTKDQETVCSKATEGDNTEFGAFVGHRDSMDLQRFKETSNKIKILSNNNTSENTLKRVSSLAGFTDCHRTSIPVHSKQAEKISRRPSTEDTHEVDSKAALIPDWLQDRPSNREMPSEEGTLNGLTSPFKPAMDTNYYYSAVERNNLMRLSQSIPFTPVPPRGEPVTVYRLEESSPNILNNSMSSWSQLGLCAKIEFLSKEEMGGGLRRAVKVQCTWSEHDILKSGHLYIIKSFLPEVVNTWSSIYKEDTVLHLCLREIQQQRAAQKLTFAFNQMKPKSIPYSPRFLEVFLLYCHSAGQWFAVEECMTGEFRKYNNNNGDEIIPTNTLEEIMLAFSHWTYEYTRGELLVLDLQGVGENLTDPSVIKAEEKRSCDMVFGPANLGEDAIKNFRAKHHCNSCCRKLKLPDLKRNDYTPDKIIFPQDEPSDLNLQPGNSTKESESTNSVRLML

[4] = tested on: neurons; assay: Neuronal survival 20 h after NMDA challenge (FIG. 14); format: cell-based; conditions: 20 h after 1 h NMDA challenge; peptide applied immediately after the NMDA challenge
Protocol: The sequence of Tat-9cTRPM7 is: [[…] or [[…]-[…]], whereby the first 11 residues correspond to the cell membrane transduction domain of the human immunodeficiency virus type 1 (HIV-1) Tat protein and the last 9 residues correspond to the last 9 amino acids of the C-terminus of human TRPM7 (accession Q96QT4). […] (A) Neuronal survival at 20 h in the indicated concentrations of Tat-9cTRPM7 in the absence of excitotoxic challenge. (B) Neuronal survival 20 h after challenging the cultures for 1 h with the indicated concentration of NMDA. Tat-9cTRPM7 was applied immediately after the NMDA challenge.
The sequence of Tat-9cTRPM7 is: [[…]-[…]; SEQ ID NO:258], whereby the first 11 residues correspond to the cell-membrane transduction domain of the human immunodeficiency virus type 1 (HIV-1) Tat protein and the last 9 residues correspond to the last 9 amino acids of the C-terminus of human TRPM7 (accession Q96QT4). (A) Neuronal survival at 20 h in the indicated concentrations of Tat-9cTRPM7 in the absence of excitotoxic challenge. (B) Neuronal survival 20 h after challenging the cultures for 1 h with the indicated concentration of NMDA. Tat-9cTRPM7 was applied immediately after the NMDA challenge.

## CC(C)[C@H](NC(=O)[C@H](CCC(=O)O)NC(=O)[C@@H](NC(=O)[C@H](CCC(=O)O)NC(=O)[C@H](CCCNC(=N)N)NC(=O)[C@H](Cc1ccccc1)NC(=O)[C@H](Cc1c[nH]cn1)NC(=O)[C@H](CCCCN)NC(=O)[C@H](CCC(=O)O)NC(=O)[C@H](CCCNC(=N)N)NC(=O)[C@H](CCCNC(=N)N)NC(=O)[C@H](CCCNC(=N)N)NC(=O)[C@H](CCC(N)=O)NC(=O)[C@H](CCCNC(=N)N)NC(=O)[C@H](CCCNC(=N)N)NC(=O)[C@H](CCCCN)NC(=O)[C@H](CCCCN)NC(=O)[C@H](CCCNC(=N)N)NC(=O)CNC(=O)[C@H](Cc1ccc(O)cc1)NC(=O)CCCC[C@@H]1SC[C@@H]2NC(=O)N[C@@H]21)[C@@H](C)O)C(=O)O [AA353] (Biotin-YGRKKRRQRRREKHFRETEV-OH)
[1]
  EC50: < 2 nM

## [Gd+3] [Gd^3+]
[2]
  survival of neurons: permit survival of neurons destined to die from prolonged OGD

## [Mg+2] [Mg^2+]
[3]
  concentration inhibiting TRPM7: 0.6 mM

## YGRKKRRQRRRSTNSVRLML [Tat-9cTRPM7]
[4]
  Neuronal survival: enhanced survival
